In publication PMC4889062, “Tachykinin-Related Peptides Share a G Protein-Coupled Receptor with Ion Transport Peptide-Like in the Silkworm Bombyx mori” (PLoS ONE, 2016) one finds EC50 data, which are given here for one molecule.

One assay addresses T1, BNGR-A24 (Bombyx mori, UniProt B3XXN7).
T1 sequence (B3XXN7 1-391): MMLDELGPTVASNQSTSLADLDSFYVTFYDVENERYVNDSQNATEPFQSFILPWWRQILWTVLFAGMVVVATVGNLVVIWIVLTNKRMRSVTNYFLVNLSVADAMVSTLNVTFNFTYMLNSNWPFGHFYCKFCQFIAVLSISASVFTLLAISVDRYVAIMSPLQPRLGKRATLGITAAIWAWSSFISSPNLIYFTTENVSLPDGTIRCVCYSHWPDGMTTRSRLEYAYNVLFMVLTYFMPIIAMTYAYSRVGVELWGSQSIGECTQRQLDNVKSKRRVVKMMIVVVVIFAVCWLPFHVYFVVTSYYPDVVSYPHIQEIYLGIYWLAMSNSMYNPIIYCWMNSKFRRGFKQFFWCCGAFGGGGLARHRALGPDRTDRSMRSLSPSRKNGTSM
Description: cell-based. The protocol: (§1) The assays were performed as previously reported. Briefly, HEK293T cells seeded on a glass-based dish were co-transfected with pME18S plasmids carrying BNGRs and the promiscuous G protein alpha subunit, Gα15. Following 24 h incubation, the transfected cells were loaded with 500 μL of a Ca^2+ indicator solution (2 μM Fluo-4 AM [Dojin Chemicals, Kumamoto, Japan] and 0.01% Pluronic-F 127 [Anaspec, San Jose, CA, USA] in Opti-MEM [Life Technologies]) and incubated at 37°C for 30 min in a dark room. The cells were washed twice with Ringer’s solution and then 800 μL Ringer’s solution was added to the cells. Within a given run time, 100 μL of the following compounds were added sequentially: Ringer’s solution (at 15 s, vehicle control), the peptide of interest or a mixture with its potential competitor (at 60 s), and 100 μM ATP (at 120 s, an experimental control). Fluo-4-derived fluorescence was chronologically monitored using a confocal laser-scanning microscope (FV-1000D; Olympus, Tokyo, Japan), with the preinstalled dye mode for Fluo-3. At least three independent experiments were performed. Dose-response curves were generated and EC50 values were calculated from the obtained fitting curves.
In order to evaluate whether the three TRP receptor candidates, BNGR-A24, -A32, and -A33, function as receptors for B. mori TRPs, the response of these three BNGRs to chemically synthesized TRPs was examined using the Ca^2+ imaging assay.
The response of HEK293T cells co-expressing BNGR-A24 (A) or BNGR-A32 (B) and promiscuous mouse Gα15 to the TRPs was monitored using the Ca^2+ imaging technique. Dose-response curves are depicted as relative fluorescent intensity (mean ± S.D.; n = 3).

A further assay concerns the target T2, BNGR-A32 (Bombyx mori, UniProt B3XXP5).
T2 sequence (B3XXP5 1-372): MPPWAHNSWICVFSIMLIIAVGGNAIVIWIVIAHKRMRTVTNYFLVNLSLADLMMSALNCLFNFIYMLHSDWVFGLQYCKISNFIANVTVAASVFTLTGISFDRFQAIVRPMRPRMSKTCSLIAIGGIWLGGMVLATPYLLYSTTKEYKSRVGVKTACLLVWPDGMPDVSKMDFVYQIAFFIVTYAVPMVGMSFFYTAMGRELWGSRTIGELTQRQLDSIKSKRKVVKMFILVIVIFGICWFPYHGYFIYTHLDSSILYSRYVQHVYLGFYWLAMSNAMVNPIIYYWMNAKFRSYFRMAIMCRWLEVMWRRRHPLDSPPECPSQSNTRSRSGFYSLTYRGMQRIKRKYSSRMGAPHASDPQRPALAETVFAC
Description: Ca2+ imaging assay of BNGR-A32 in HEK293T cells co-expressing Gα15. The class given is cell-based. The conditions noted are these: HEK293T cells co-expressing BNGR-A32 and promiscuous mouse Gα15; Fluo-4 Ca2+ imaging; from fitted dose-response curves, n = 3. The protocol:
as §1, with “curves. […]” for “curves.”
The response of HEK293T cells co-expressing BNGR-A24 (A) or BNGR-A32 (B) and promiscuous mouse Gα15 to the TRPs was monitored using the Ca^2+ imaging technique. […]

Structures are written as SMILES. Peptide text beside a SMILES is read from it.

On to `CSCC[C@H](NC(=O)CNC(=O)[C@H](Cc1ccccc1)NC(=O)[C@H](Cc1ccccc1)NC(=O)CNC(=O)[C@H](CCSC)NC(=O)[C@H](CCC(N)=O)NC(=O)CN)C(=O)N[C@@H](CCCNC(=N)N)C(N)=O` [TK-5] (H-GQMGFFGMR-NH2), for which the EC50 on BNGR-A24 turned out to be 2.3 nM; on BNGR-A32, 0.48 nM.
